From EP0637247B1, “TREATMENT OF HERPESVIRUS INFECTION” (priority 1992, dated 1993)
pIC50: −log10 of the molar value. Like-named read-outs stand apart in the source and are kept apart here. Where a SMILES comes first, the peptide text is derived from it. [ ]: non-standard residue; d: D form.

What was measured:
HSV-1 strain F = settings: mice, foot-pad injections in PBS, one week pretreatment then three times weekly; particularly at the doses of 5 and 50µg/mouse
Procedure: After pretreatment, the left footpad was inflamed by injecting about 5 µL of 1M NaCl. After about 6 hours, the same footpad was abraded and a drop of HSV-1 strain F (2 x 10^3 pfu/ml) was then added deposited on the inflamed footpad.

HSV-1 F = assay type: cell-based; settings: plaque reduction, HSV-1 F on Vero cell monolayers, peptide pretreatment 25 hours, replication 2 to 3 days; for pIC50: read-out: IC50
Procedure: Selected compounds were first formulated as 10 mM stocks in water for in vitro and cell culture procedures. The stocks are then diluted into buffers used for specific assays, or into cell culture media. For animal studies peptides are diluted into phosphate buffer saline.
Results of the plaque reduction assay performed with various peptides, expressed in terms of IC50 are tabulated below: […]

CC(=O)N[C@H](CCCNC(=N)N)C(=O)N[C@H](CCCNC(=N)N)C(=O)N[C@H](CCCNC(=N)N)C(=O)N[C@H](CCCNC(=N)N)C(=O)N[C@H](CCCNC(=N)N)C(=O)N[C@H](CCCNC(=N)N)C(=O)N[C@H](CCCNC(=N)N)C(=O)N[C@H](CCCNC(=N)N)C(=O)N[C@H](CCCNC(=N)N)C(N)=O [acetyl-[D-Arg]9-NH2]
anti-herpetic effect in vivo (Figure 3) (HSV-1 strain F): anti-herpetic result

CC(=O)N[C@H](CCCNC(=N)N)C(=O)N[C@H](CCCNC(=N)N)C(=O)N[C@H](CCCNC(=N)N)C(=O)N[C@H](CCCNC(=N)N)C(=O)N[C@H](CCCNC(=N)N)C(=O)N[C@H](CCCNC(=N)N)C(=O)N[C@H](CCCNC(=N)N)C(N)=O [acetyl-[D-Arg]7-NH2, acetyl-[D-(Arg)7]-NH2]
IC50 (HSV-1 F): slight

CC(=O)N[C@H](CCCNC(=N)N)C(=O)N[C@H](CCCCN)C(=O)N[C@H](CCCCN)C(=O)N[C@H](CCCNC(=N)N)C(=O)N[C@H](CCCNC(=N)N)C(=O)N[C@H](CCC(N)=O)C(=O)N[C@H](CCCNC(=N)N)C(=O)N[C@H](CCCNC(=N)N)C(N)=O (Ac-[dR][dK][dK][dR][dR][dQ][dR][dR]-NH2)
pIC50 (HSV-1 F): < 4.70

CC[C@H](C)[C@H](NC(=O)[C@H](C)NC(=O)[C@@H](NC(=O)[C@H](Cc1ccccc1)NC(C)=O)[C@@H](C)CC)C(=O)N[C@@H](C)C(=O)N[C@H](CCCNC(=N)N)C(=O)N[C@H](CCCCN)C(=O)N[C@H](CCCCN)C(=O)N[C@H](CCCNC(=N)N)C(=O)N[C@H](CCCNC(=N)N)C(=O)N[C@H](CCC(N)=O)C(=O)N[C@H](CCCNC(=N)N)C(=O)N[C@H](CCCNC(=N)N)C(N)=O (Ac-FIAIA[dR][dK][dK][dR][dR][dQ][dR][dR]-NH2)
pIC50 (HSV-1 F): 5.00
